Among the data in patent publication US4522752A, “Retro-inverso analogues of the bradykinin potentiating peptide BPP5a and methods for their preparation” (E.N.I. Ente Nazionale Idrocarburi, priority 1983, dated 1985) are IC50 and oral activity values, retold here.

The target of experiment [1] is T1, angiotensin conversion enzyme (Oryctolagus cuniculus, UniProt P12822).
T1 construct: the enzyme isolated from rabbit lungs; from tissue; host or cells: rabbit lung
T1 sequence (P12822 34-1310): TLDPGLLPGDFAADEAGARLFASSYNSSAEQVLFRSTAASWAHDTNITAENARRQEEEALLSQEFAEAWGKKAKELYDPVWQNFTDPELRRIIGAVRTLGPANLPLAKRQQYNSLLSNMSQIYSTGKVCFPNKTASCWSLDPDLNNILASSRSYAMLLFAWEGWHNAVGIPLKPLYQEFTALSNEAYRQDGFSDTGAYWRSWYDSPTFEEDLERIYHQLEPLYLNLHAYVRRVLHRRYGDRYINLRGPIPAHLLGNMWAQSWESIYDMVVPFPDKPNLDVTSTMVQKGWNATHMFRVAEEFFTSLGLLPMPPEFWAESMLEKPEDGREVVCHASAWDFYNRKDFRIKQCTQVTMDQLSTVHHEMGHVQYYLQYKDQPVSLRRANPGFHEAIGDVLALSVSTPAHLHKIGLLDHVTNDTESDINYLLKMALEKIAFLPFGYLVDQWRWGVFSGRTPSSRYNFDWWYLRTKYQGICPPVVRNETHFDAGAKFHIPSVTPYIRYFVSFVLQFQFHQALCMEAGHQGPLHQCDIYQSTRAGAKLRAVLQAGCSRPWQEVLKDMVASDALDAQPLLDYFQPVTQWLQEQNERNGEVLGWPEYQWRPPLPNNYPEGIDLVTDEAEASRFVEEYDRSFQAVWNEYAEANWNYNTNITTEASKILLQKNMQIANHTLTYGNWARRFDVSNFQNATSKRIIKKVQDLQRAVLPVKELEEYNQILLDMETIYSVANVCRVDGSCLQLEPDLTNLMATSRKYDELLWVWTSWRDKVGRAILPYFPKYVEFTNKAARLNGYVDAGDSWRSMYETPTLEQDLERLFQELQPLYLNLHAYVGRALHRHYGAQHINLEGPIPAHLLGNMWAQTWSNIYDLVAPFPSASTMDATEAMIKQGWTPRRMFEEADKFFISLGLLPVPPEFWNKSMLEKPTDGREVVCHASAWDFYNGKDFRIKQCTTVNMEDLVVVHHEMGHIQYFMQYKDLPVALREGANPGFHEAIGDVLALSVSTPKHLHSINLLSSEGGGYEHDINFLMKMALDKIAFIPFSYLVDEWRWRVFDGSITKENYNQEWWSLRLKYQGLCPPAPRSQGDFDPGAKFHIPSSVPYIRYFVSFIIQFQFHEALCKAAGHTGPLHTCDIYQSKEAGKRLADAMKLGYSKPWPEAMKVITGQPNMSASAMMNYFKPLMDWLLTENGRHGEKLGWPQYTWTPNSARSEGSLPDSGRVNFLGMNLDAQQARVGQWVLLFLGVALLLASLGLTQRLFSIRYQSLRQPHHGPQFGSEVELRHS
The note with it: literature value given in Table 1; read-out: I50 (lit.); cited from earlier work.

Experiment [2] addresses T1, angiotensin conversion enzyme. Briefly: Inhibition of the angiotensin conversion enzyme in vitro (method of Cushman and Cheung). The format is biochemical. The note with it: enzyme isolated from rabbit lungs, read-out: I50. Here is the method: The inhibition of the angiotensin conversion enzyme by the compounds of general formula (I) is measured in vitro by the enzyme isolated from rabbit lungs by the method of Cushman and Cheung [Biochem. Pharmacol., 20, 1637 (1971)].

The conditions of experiment [3]: oral administration; needs intravenous administration; cited from earlier work.

Read-outs that look alike come from different tables or passages of the source. Where a SMILES comes first, the peptide text is derived from it. [ ]: non-standard residue; d: D form. The star is where a group is joined. Hyp = O=C(O)[C@@H]1C[C@@H](O)CN1; pGlu = O=C1CC[C@@H](C(=O)O)N1; Bn = c1ccc(C*)cc1

For the compound `C[C@H](NC(=O)[C@H](Cc1ccccc1)NC(=O)[C@H](CCCCN)NC(=O)[C@@H]1CCC(=O)N1)C(=O)N1CCC[C@H]1C(=O)O` [Glp--Lys--Phe--Ala--Pro] ([pGlu]KFAP-OH), the figures for the IC50 in experiment [1] and in experiment [2] were 0.07 µM and 0.13 µM, respectively.
`CC[C@H](C)[C@H](NC(=O)[C@H](CCC(N)=O)NC(=O)[C@@H]1CCCN1C(=O)[C@H](CCCNC(=N)N)NC(=O)[C@@H]1CCCN1C(=O)[C@H](Cc1c[nH]c2ccccc12)NC(=O)[C@@H]1CCC(=O)N1)C(=O)N1CCC[C@H]1C(=O)N1CCC[C@H]1C(=O)O` [teprotide]: in experiment [3], the oral activity entry was “inactive orally”.
Take `C[C@H](NC(=O)C(Cc1ccccc1)C(=O)N[C@H](CCCCN)C(=O)NC1CCC(=O)N1)C(=O)N1CCC[C@H]1C(=O)O` (stereo partly drawn) [gGlp--D-Lys--mPhe--Ala--Pro, gem-pyroglutamyl-D-lysyl-(R,S)-malonyl-(2-benzyl)-alanyl-proline]: the IC50 in experiment [2] amounted to 85 µM.
Turning to `C[C@H](NC(=O)[C@H](Cc1ccccc1)NC(=O)[C@H](CCCCN)NC(=O)[C@@H]1CCC(=O)N1)C(=O)N1C[C@H](OCc2ccccc2)C[C@H]1C(=O)O` [Glp--Lys--Phe--Ala--Hyp(OBz), pyroglutamyl-lysyl-phenylalanyl-alanyl-(4-benzyloxy)-proline] ([pGlu]KFA[Hyp](Bn)-OH), in experiment [2], the IC50 is 0.11 µM.
